One assay deals with breast tumor. Description: NIRF imaging of breast tumor after oral gavage of systemic functional dye. Type of assay: in vivo, mouse. The procedure: FIG. 6A-6D. Highlighting a breast tumor following oral administration of an exemplary systemic functional dye (Compound (8), SU780). FIG. 6A NIRF imaging of the intact mouse 24 h post oral gavage of SU780.
A wild type with an unidentified spontaneous flank tumor received an oral gavage of Compound (8) (SU780) (0.4 mg/kg). The following day, the animal was sacrificed, and the tumor was subjected to NIRF imaging.
Shown in FIG. 6 is the highlighting of a breast tumor following oral administration of the systemic functional dye Compound (8) (SU780).

The conditions of assay [1]: systemically administered, clinical optical contrast agent; cited from earlier work.

On to `CCCN1/C(=C/C=C2\CCCC(/C=C/C3=[N+](CCC)c4ccccc4C3(C)C)=C2Nc2ccc(NC(=O)CN3CCOCC3)cc2)C(C)(C)c2ccccc21` [Compound (8)], for which the “localisation in H&E processed tumor section” value in the assay on breast tumor (after tissue processing for H&E) is “highlights mainly epithelial cancer cells”. For the same compound, in the assay on breast tumor (after tumor resection, oral gavage), the “fluorescence of residual tumor tissue in resection bed (image-guided resection)” value is on record as “residual tumor tissue was fluorescing in the resection bed”. The “highlighting of tumor by NIRF imaging after oral administration” value in the assay with breast tumor (mouse with spontaneous flank (breast) tumor, oral gavage 0.4 mg/kg, following day, resected tumor) is “highlights the tumor”. Further, the “NIRF signal at tumor margin / tumor infiltration into normal tissue (tissue section)” value is listed as “perfect correlation with tumor infiltration into normal tissues” in the assay on breast tumor (oral gavage 0.4 mg/kg, 0.4 mg/kg) and “highlights the finger-like infiltration of the breast cancer cells into normal mammary fat pad” in the assay on breast tumor (oral gavage 0.4 mg/kg, listed as SU780, 0.4 mg/kg).

In the case of `CC1(C)C(/C=C/C2=C(Oc3ccc(C[C@H](NC(=O)c4ccc(NCc5cnc6nc(N)[nH]c(=O)c6n5)cc4)C(=O)[O-])cc3)C(=C/C=C3\N(CCCCS(=O)(=O)[O-])c4ccc(S(=O)(=O)[O-])cc4C3(C)C)/CCC2)=[N+](CCCCS(=O)(=O)[O-])c2ccc(S(=O)(=O)[O-])cc21.[H+].[H+].[H+].[H+]` [OTL38], in assay [1], the TBR is listed as 4.4.

(Values after patent US20200390909A1, “DRUG FRAGMENT IMAGING AGENT CONJUGATES” (The Board of Trustees of the Leland Stanford Junior …, priority 2018, published 2020).)
